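Test compounds were applied to cells in 96-well plates for 48 hours at 5 doses. GI50: concentration for 50% inhibition of growth. At the TGI there is no net growth.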
Tests used:
Assay in all cases: NCI-60 cell line screen, 48 h
[1] = system: 786-0 renal
[2] = system: A498 renal
[3] = system: A549 NSCLC
[4] = system: ACHN renal
[5] = system: BT-549 breast
[6] = system: CAKI-1 renal
[7] = system: COLO 205 colon
[8] = system: DU-145 prostate
[9] = system: EKVX NSCLC
[10] = system: HCC-2998 colon
[11] = system: HCT-116 colon
[12] = system: HCT-15 colon
[13] = system: HL-60(TB) leukemia
[14] = system: HOP-62 NSCLC
[15] = system: HOP-92 NSCLC
[16] = system: HS 578T breast
[17] = system: HT29 colon
[18] = system: IGROV1 ovarian
[19] = system: K-562 leukemia
[20] = system: KM12 colon
[21] = system: LOX IMVI melanoma
[22] = system: M14 melanoma
[23] = system: MALME-3M melanoma
[24] = system: MCF7 breast
[25] = system: MDA-MB-231 breast
[26] = system: MDA-MB-435
[27] = system: MDA-MB-468 breast
[28] = system: MOLT-4 leukemia

O=C(/C=C/c1ccccc1)c1nc2ccccc2n1Cc1ccc(Br)cc1
GI50 [1]: 1.79 µM | TGI [1]: 3.34 µM | GI50 [2]: 15.1 µM | TGI [2]: 28.4 µM | GI50 [3]: 3.51 µM | TGI [3]: 20.4 µM | GI50 [4]: 3.12 µM | TGI [4]: 10.1 µM | GI50 [5]: 1.93 µM | TGI [5]: 4.7 µM | GI50 [6]: 2.6 µM | TGI [6]: 11.2 µM | GI50 [7]: 2.36 µM | TGI [7]: 5 µM | GI50 [8]: 3.96 µM | TGI [8]: 18.6 µM | GI50 [9]: 2.75 µM | TGI [9]: 8.44 µM | GI50 [10]: 1.83 µM | TGI [10]: 3.42 µM | GI50 [11]: 1.71 µM | TGI [11]: 3.16 µM | GI50 [12]: 1.67 µM | TGI [12]: 3.47 µM | GI50 [13]: 1.61 µM | TGI [13]: 4.17 µM | GI50 [14]: 2.21 µM | TGI [14]: 5.09 µM | GI50 [15]: 1.92 µM | TGI [15]: 8.58 µM | GI50 [16]: 4.22 µM | TGI [16]: 53.4 µM | GI50 [17]: 2.91 µM | TGI [17]: 7.34 µM | GI50 [18]: 2.32 µM | TGI [18]: 5.53 µM | GI50 [19]: 2.39 µM | TGI [19]: 6.6 µM | GI50 [20]: 2.95 µM | TGI [20]: 10.2 µM | GI50 [21]: 1.65 µM | TGI [21]: 3.12 µM | GI50 [22]: 2.16 µM | TGI [22]: 4.77 µM | GI50 [23]: 1.94 µM | TGI [23]: 4.63 µM | GI50 [24]: 1.78 µM | TGI [24]: 6.26 µM | GI50 [25]: 2.26 µM | TGI [25]: 5.16 µM | GI50 [26]: 2.25 µM | TGI [26]: 5.95 µM | GI50 [27]: 1.89 µM | TGI [27]: 3.81 µM | GI50 [28]: 1.84 µM | TGI [28]: 5.47 µM
